The assay concerns TNF-α production by PMBC. As to the kind of experiment: Inhibition of TNF-α production by peripheral blood monocyte cells (PMBC), LPS-stimulated. The assay is classed as cell-based. The note with it: 1 ug/mL LPS, 24 hours at 37° C, TNF-α quantified by EIA. On the procedure:
Inhibition of TNF-α Production By Peripheral Blood Monocyte Cells (PMBC)
PMBC in RPMI 1640 Cell Culture Medium (containing 1% Penicillin and 1% Streptomycin) are aliquoted into 96-well plates at 5×10^5 cells/well and pre-incubated with test compounds for 30 minutes at 37° C. After incubation, 1 ug/mL LPS is added to each well to stimulate TNF-α production and the plate is incubated for 24 hours at 37° C. After incubation, the supernatant is removed and the TNF-α secreted is quantified using EIA detection kits commercially available from R&D Systems (USA). The results from this assay are expressed as percent inhibition of control activity, with the control being stimulated wells with no test compound. Dexamethasone is used as a standard reference compound in the assay and is tested with each experiment. All test compounds are diluted from 10 mM stock solutions in 100% DMSO.

For the compound `O=C1COc2ccccc2N1CCCCCB(O)O` [Example 7, 5-(2,3-dihydro-3-oxobenzo[b][1,4]oxazin-4-yl)pentylboronic acid], the 50% inhibitory concentration (IC50) came out at 360 nM.

Consider `O=C1CSc2ccccc2N1CCCCCB(O)O` [Example 4, 5-(2,3-dihydro-3-oxobenzo[b][1,4]thiazin-4-yl)pentylboronic acid], for which the midpoint of inhibition, the IC50, lay at 700 nM.

Take `O=C1COc2ccc(F)cc2N1CCCCCB(O)O` [Example 3, 5-(6-fluoro-2,3-dihydro-3-oxobenzo[b][1,4]oxazin-4-yl)pentylboronic acid]: it took 260 nM to reach half-maximal inhibition (IC50).

On to `O=C1COc2cc([N+](=O)[O-])ccc2N1CCCCCB(O)O` [Example 6, 5-(2,3-dihydro-7-nitro-3-oxobenzo[b][1,4]oxazin-4-yl)pentylboronic acid], for which half-maximal inhibition (IC50) required 74 nM.

Regarding `CCOC(=O)CC1Sc2ccccc2N(CCCCCB(O)O)C1=O` (stereo not drawn) [Example 8, ethyl 2-(3,4-dihydro-3-oxo-4-(5-pentylboronic acid)-2H-benzo[b][1,4]thiazin-2-yl)acetate], inhibition was half-maximal at 810 nM (IC50).

For the compound `O=C1CSc2cc(Cl)ccc2N1CCCCCB(O)O` [Example 5, 5-(7-chloro-2,3-dihydro-3-oxobenzo[b][1,4]thiazin-4-yl)pentylboronic acid], it took 80 nM to reach half-maximal inhibition (IC50).

For the origin of these results see patent US20080269204A1, “Compounds and Methods of Use Thereof” (priority 2004, published 2008).
